# Measured values from patent publication US20200399308A1, “COMPOUNDS AND METHODS FOR ELICITING ANTIMICROBIAL ACTIVITY” (Technion Research & Development Foundation Limited, priority 2018, published 2020).
# Like-named read-outs stand apart in the source and are kept apart here. Non-standard residues stand in square brackets, D forms with d. Residues, ends and D or L forms follow the SMILES beside them. *: point of attachment. 12Ado = NCCCCCCCCCCCC(=O)O; Decanoyl = CCCCCCCCCC(=O)*; Octanoyl = CCCCCCCC(=O)*
# What was measured:
# [1] = Charge at physiological pH (Q); assay type: physicochemical
# [2] = Critical aggregation concentration by light scattering in PBS; assay type: physicochemical; details: light scattering in phosphate-buffered saline
# Protocol: (§1) Organization of the compounds in aqueous solution was assessed by light-scattering measurements in phosphate buffered saline (PBS; 10 mM Na2HPO4, 150 mM NaCl, pH=7.0). Hemolytic assays were performed as described elsewhere, using fresh mouse red blood cells.
# (§2) The mean value (±SD) is shown for Compound C; Minimum inhibitory concentration (MIC) of compounds required to inhibit bacterial proliferation after overnight incubation.
# Escherichia coli 25922 [3] = assay: Minimal inhibitory concentration; assay type: cell-based
# Protocol: (§3) Minimal inhibitory concentrations (MICs) were determined as previously described. […] MICs were determined by microdilution susceptibility testing in 96-well plates (by Nunc) using inocula of 10^5 bacteria per ml. Cell populations were evaluated by optical density measurements at 620 nm and were calibrated against a set of standards. Hundred (100) μl of a bacterial suspension were added to 100 μl of culture medium (control) or to 100 μl of culture medium containing various tested compound concentrations in 2-fold serial dilutions. Inhibition of proliferation was determined by optical density measurements at 620 nm after an incubation period of 24 hours at 37° C. Data were obtained from ≥2 independent experiments performed in duplicate.
# as §2
# Escherichia coli ML35p = assay: Minimal inhibitory concentration; assay type: cell-based; details: Ec ML35p, overnight incubation
# Protocol: as §3, §2
# [4] = test system: Salmonella enterica serovar Choleraesuis 7308; assay: Minimal inhibitory concentration; assay type: cell-based
# Protocol: as §3, §2
# [5] = test system: Pseudomonas aeruginosa 11816; assay: Minimal inhibitory concentration; assay type: cell-based
# Protocol: as §3, §2
# [6] = test system: Salmonella enterica serovar Typhimurium 14028; assay: Minimal inhibitory concentration; assay type: cell-based
# Protocol: as §3, §2
# [7] = test system: Klebsiella pneumoniae 1287; assay: Minimal inhibitory concentration; assay type: cell-based
# Protocol: as §3, §2
# [8] = test system: Pseudomonas aeruginosa 11662; assay: Minimal inhibitory concentration; assay type: cell-based
# Protocol: as §3, §2
# [9] = test system: Klebsiella pneumoniae C2 (carbapenemase 2-producing strain); assay: Minimal inhibitory concentration; assay type: cell-based
# Protocol: as §3, §2
# [10] = test system: Escherichia coli mutant ML-35p; assay: Outer and cytoplasmic membrane permeabilization (nitrocefin / ONPG); assay type: cell-based; details: E. coli ML-35p, buffer, 16 minutes after addition
# Protocol: Membrane permeabilization was assessed using E. coli ML-35p as described elsewhere, to monitor the ability of the compounds to perturb the outer and/or cytoplasmic membranes. Reported data were obtained from ≥2 independent experiments performed in duplicate.
# Additional support for this view was obtained by comparing the compounds' susceptibility to damage gram-negative bacteria membranes, using the E. coli mutant ML-35p. Widely described in the literature, the mutant was considered herein as representative of all gram-negative bacteria, rather than a specific species. This mutant is constitutive for cytoplasmic β-galactosidase, lacks lactose permease, and expresses a plasmid-encoded periplasmic β-lactamase. Two chromogenic reporter molecules (nitrocefin and 2-nitrophenyl β-d-galactopyranoside, respectively, absorbing at 486 and 420 nm) were used to monitor permeabilization of the outer membrane and/or cytoplasmic membrane in a single assay.
# [11] = Hydrophobicity (H) by HPLC elution from C18 column; assay type: physicochemical; details: percentage of acetonitrile required for elution
# Hemolytic assay = assay type: cell-based; details: fresh mouse red blood cells (1%); hemolysis of 50% of mouse red blood cells (1%) after 3 hours in PBS; read-out: LC50, fifty percent lethal concentration (hemolysis)
# Protocol: as §1, §2
# E. coli 25922 [12] = assay: Ethidium bromide permeability assay; assay type: cell-based, Escherichia coli; details: t=20 minutes
# Protocol: Ethidium bromide permeability assays were performed as follows: Overnight cultures were adjusted to 1.0 OD (600 nm) and centrifuged for 5 minutes at 15,000 g. Pellets were washed twice with PBS containing 0.5% glucose, resuspended, and incubated for 10 minutes at 37° C. with shaking. A […] suspension was mixed in a black 96-well plate with […] of the tested compound and ethidiumbromide (1 μg/ml), and the fluorescence was recorded (excitation 535 nm, emission 590 nm) for up to 30 minutes at 37° C. with shaking. Data were obtained from at least 2 independent experiments.
# (FU denotes fluorescence units; triangles denote Compound B, circles denote PMB, squares denote untreated control; error bars=SD).
# Escherichia coli 25922 [13] = assay: Mouse thigh infection model; assay type: in vivo; details: normal mice inoculated intramuscularly, treated s.c. 1 hour thereafter, CFU 24 hours post-treatment
# Protocol: Mouse thigh infection model was afforded from normal ICR mice, which were inoculated intramuscularly and treated subcutaneously 1 hour thereafter with a tested compound or polymyxin B (PMB; Sigma-Aldrich) as described elsewhere. P values were calculated using a 1-tailed t test (assuming unequal variance). A P value of <0.05 is considered statistically significant.
# [14] = 20 mg/kg body weight; reported; cited from earlier work
# OM = assay: Outer membrane damage by less hydrophobic analogs; assay type: cell-based
# E. coli strain 25922 = assay: Checkerboard antibiotic MIC with Compound B; assay type: cell-based, Escherichia coli
# Protocol: as §3
# (§4) Shown in parentheses are calculated sensitization factor, defined as antibiotic's MICs ratio (in absence vs. presence of Compound B) at specified Compound B concentration.
# E. coli strain 16327 = assay: Checkerboard antibiotic MIC with Compound B; assay type: cell-based, Escherichia coli
# Protocol: as §3, §4
# E. coli strain 14182 = assay: Checkerboard antibiotic MIC with Compound B; assay type: cell-based, Escherichia coli
# Protocol: as §3, §4
# E. coli strain 35218 = assay: Checkerboard antibiotic MIC with Compound B; assay type: cell-based, Escherichia coli
# Protocol: as §3, §4
# E. coli strain 14384 = assay: Checkerboard antibiotic MIC with Compound B; assay type: cell-based, Escherichia coli
# Protocol: as §3, §4
# Escherichia coli 25922 [15] = assay: Mouse peritonitis-sepsis model; assay type: in vivo; details: neutropenic ICR mice; erythromycin 100 mg/kg s.c. + Compound B […] s.c.
# Protocol: A mouse peritonitis-sepsis model was created as described elsewhere. Infection was obtained after intraperitoneal injection of bacteria from a logarithmic-phase culture. Infected mice were treated subcutaneously. The doses were selected to allow comparison with the reference compound and to remain below the maximum tolerated dose after double-dose administration. […] Briefly, mouse peritonitis sepsis model for in vivo studies were performed using male ICR mice ([…]) obtained from Envigo Laboratories (Rehovot, Israel). […] Infection was obtained by intraperitoneal injection of a logarithmic phase culture of E. coli 25922 (1.3±0.2×10^6 CFU permouse in 0.3 ml PBS). […] Infection control mice were injected with the PBS vehicle. Mouse survival was monitored for up to 7 days after treatment. Statistical analyses were performed by paired Student's t test, at α=0.05.
# E. coli 25922 [16] = assay: Time-kill kinetics in broth versus plasma; assay type: cell-based, Escherichia coli
# Protocol: (§5) Time-kill kinetics data were determined using 100 μl of bacterial suspension (10^6 CFU/ml), which was added to […] LB containing none of or specified concentrations of the tested compound, antibiotic, and combinations thereof. After the specified exposure time points (37° C. under shaking), aliquots were formed, subjected to serial 10-fold dilutions in saline (0.85% NaCl), and plated for bacterial enumeration after additional 24 hours incubation at 37° C. Time-kill experiments in human and mouse plasma were performed as described elsewhere. The effects of drug delay were assessed in LB, except that bacteria were pre-incubated with the tested compound or antibiotic for the specified time points, centrifuged, and resuspended in fresh LB-containing antibiotic or the tested compound, respectively, and incubated for 3 hours before CFU enumeration.
# [17] = Subcutaneous 25 mg/kg, published data, cited from earlier work
# E. coli 25922 [18] = assay: Simultaneous versus delayed drug exposure assay in LB; assay type: cell-based, Escherichia coli; details: Compound B 10 μM with 0.06 μg/ml rifampin or 4 μg/ml erythromycin, LB
# Protocol: as §5
compound,measurement,setting,value
CCCCCCCCCC(=O)NC(CCCNC(=N)N)C(=O)NC(CCCNC(=N)N)C(=O)NCCCCCCCCCCCC(=O)NC(CCCNC(=N)N)C(N)=O (stereo not drawn) [Compound C] (Decanoyl-RR[12Ado]R-NH2; configuration not given here),"Q, charge at physiological pH",[1],3
same,"CAC, critical aggregation concentration",[2],>100 µM
same,MIC,"Escherichia coli 25922 [3]; Ec 25922, overnight incubation, read-out: MIC",25 µM
same,MIC,Escherichia coli ML35p,12.5 µM
same,MIC,"[4]; CHOLERAESUIS / SC7308, SC 7308, overnight incubation, read-out: MIC",> 50 µM
same,MIC,"[5]; Pa 11816, overnight incubation, read-out: MIC",50 µM
same,MIC,"[6]; ST 14028, overnight incubation, read-out: MIC",> 50 µM
same,MIC,"[7]; Kp 1287, overnight incubation, read-out: MIC",50 µM
same,MIC,"[8]; Pa 11662, overnight incubation, read-out: MIC",50 µM
same,MIC,"[9]; Kp C2, overnight incubation, read-out: MIC",> 50 µM
same,cytoplasmic membrane permeabilization,[10],somewhat higher tendency for cytoplasmic membrane damaging
same,"H, hydrophobicity",[11],46%
same,CC50 at 3 h,Hemolytic assay,80 ± 1 µM
CCCCCCCCCC(=O)NC(CCCCN)C(=O)NC(CCCCN)C(=O)NCCCCCCCCCCCC(=O)NC(CCCCN)C(N)=O (stereo not drawn) [Compound A] (Decanoyl-KK[12Ado]K-NH2; configuration not given here),"Q, charge at physiological pH",[1],3
same,"CAC, critical aggregation concentration",[2],>100 µM
same,MIC,Escherichia coli 25922 [3]; 25922,> 50 µM
same,MIC,Escherichia coli ML35p,> 50 µM
same,MIC,[4]; CHOLERAESUIS / SC7308,> 50 µM
same,MIC,[5]; 11816,> 50 µM
same,MIC,[6],> 50 µM
same,MIC,[7]; 1287,> 50 µM
same,MIC,[8]; 11662,> 50 µM
same,MIC,[9],> 50 µM
same,cytoplasmic membrane permeabilization,[10],similarly unable to permeabilize the cytoplasmic membrane at least up to approximately 10 μM
same,outer membrane permeabilization,[10],similarly potent in inducing outer membrane permeabilization
same,"H, hydrophobicity",[11],44%
same,CC50 at 3 h,Hemolytic assay,> 100 µM
polymyxin B [PMB],CM permeability to ethidium bromide,E. coli 25922 [12],increased significantly more than Compound B
same,reduction of the number of inoculated E. coli,Escherichia coli 25922 [13],64%
same,mortality,[14],zero
CCCCCCCC(=O)N[C@@H](CCCCN)C(=O)N[C@@H](CCCCN)C(=O)NCCCCCCCCCCCC(=O)N[C@@H](CCCCN)C(N)=O [Compound C8KKC12K] (Octanoyl-KK[12Ado]K-NH2),damage to the OM,OM,able to damage the OM
"CC[C@H]1OC(=O)[C@H](C)[C@@H](O[C@H]2C[C@@](C)(OC)[C@@H](O)[C@H](C)O2)[C@H](C)[C@@H](O[C@@H]2O[C@H](C)C[C@H](N(C)C)[C@H]2O)[C@](C)(O)C[C@@H](C)C(=O)[C@H](C)[C@@H](O)[C@]1(C)O [Erythromycin, erythromycin]",Antibiotic MIC in the presence of Compound B,E. coli strain 25922; Compound B 2.5 μM,2 µg/mL
same,Antibiotic MIC in the presence of Compound B,E. coli strain 25922; Compound B 5 μM,0.5 to 1 µg/mL
same,Antibiotic MIC in the presence of Compound B,E. coli strain 25922; Compound B 10 μM,0.25 µg/mL
same,Antibiotic MIC in the presence of Compound B,E. coli strain 25922; Compound B […],8 µg/mL
same,Antibiotic MIC in the presence of Compound B,E. coli strain 16327; Compound B 0 μM,512 µg/mL
same,Antibiotic MIC in the presence of Compound B,E. coli strain 16327; Compound B 2.5 μM,4 µg/mL
same,Antibiotic MIC in the presence of Compound B,E. coli strain 16327; Compound B 5 μM,1 µg/mL
same,Antibiotic MIC in the presence of Compound B,E. coli strain 16327; Compound B 10 μM,0.5 µg/mL
same,Antibiotic MIC in the presence of Compound B,E. coli strain 16327; Compound B […],64 µg/mL
same,Antibiotic MIC in the presence of Compound B,E. coli strain 14182; Compound B 2.5 μM,16 µg/mL
same,Antibiotic MIC in the presence of Compound B,E. coli strain 14182; Compound B 5 μM,4 µg/mL
same,Antibiotic MIC in the presence of Compound B,E. coli strain 14182; Compound B 10 μM,1 µg/mL
same,Antibiotic MIC in the presence of Compound B,E. coli strain 35218; Compound B 2.5 μM,4 µg/mL
same,Antibiotic MIC in the presence of Compound B,E. coli strain 35218; Compound B 5 μM,1 µg/mL
same,Antibiotic MIC in the presence of Compound B,E. coli strain 35218; Compound B 10 μM,0.5 µg/mL
same,Antibiotic MIC in the presence of Compound B,E. coli strain 35218; Compound B […],64 µg/mL
same,Antibiotic MIC in the presence of Compound B,E. coli strain 14384; Compound B 0 μM,>512 µg/mL
same,Antibiotic MIC in the presence of Compound B,E. coli strain 14384; Compound B 2.5 μM,2 µg/mL
same,Antibiotic MIC in the presence of Compound B,E. coli strain 14384; Compound B 5 μM,1 µg/mL
same,Antibiotic MIC in the presence of Compound B,E. coli strain 14384; Compound B 10 μM,0.5 µg/mL
same,Antibiotic MIC in the presence of Compound B,E. coli strain 14384; Compound B […],64 µg/mL
same,efficacy of combination vs individual administrations,Escherichia coli 25922 [15],clearly more effective in combination
same,effect on CFU count,"E. coli 25922 [16]; LB broth, 24-hours end point, erythromycin 3 μg/ml combined with Compound B 0.6 μM",did not alter the CFU count
same,time to accomplish the CFU reduction (more than 3 log units),"E. coli 25922 [16]; human plasma, antibiotic with Compound B 0.6 μM",≤ 3 hours
same,combined action with Compound B,"E. coli 25922 [16]; mouse plasma, 24 hours end point, Compound B 10 μM with rifampin 1 μg/ml or erythromycin 3 μg/ml",expressed synergism of action
same,Plasma concentration,[17]; 0.5 h,3700 ng/mL
same,Plasma concentration,[17]; 1 h,2300 ng/mL
same,Plasma concentration,[17]; 2 h,400 ng/mL
same,effect of delayed exposure on sensitization by Compound B,E. coli 25922 [18],delay by up to 60 (but not 120) minutes revealed maintenance of the sensitization activity
